According to patent publication US20120004282A1, “RNA Interference Mediated Inhibition of the Intercellular Adhesion Molecule 1 (ICAM-1) Gene Expression Using Short Interfering Nucleic Acid (siNA)” (Merck Sharp & Dohme Corp,, priority 2009, published 2012):
[invAb] = inverted abasic unit; m = 2'-O-methyl; r = 2'-OH (RNA); f = 2'-fluoro

System: ICAM-1 mRNA
Test: ICAM-1 mRNA knock-down in transfected Calu-1 cells (Taqman RT-PCR)
Type: cell-based, human
Settings: Calu-1 cells, 10 nM siNA, 24 hrs post-transfection, mean ± S.D., relative to non-targeting control
Experimental: Calu-1 (human; ATCC cat# HTB-54): Cells were cultured at 37° C. in the presence of 5% CO2 and grown in McCoy's 5a medium supplemented with fetal bovine serum at a final concentration of 10% and 100 μg/mL of streptomycin and 100 U/mL penicillin.
All transfections were performed using RNAiMax (Invitrogen Cat# 13778-150) as per the manufacturer's instructions.
Calu-1 cells were plated in all wells of a tissue-culture treated, 96-well plate at final counts of 5,000 cells/well in 100 μL of appropriate culture media. Cells were cultured for 24 hours after plating at 37° C. in the presence of 5% CO2.
After 24 hours, complexes containing siNA and RNAiMax were created as follows. A solution of RNAiMax diluted 33-fold in OPTI-MEM was prepared. In parallel, solutions of the siNAs for testing were prepared to a final concentration of 120 nM in OPTI-MEM. After incubation of RNAiMax/OPTI-MEM solution at room temperature for 5 min, an equal volume of the siNA solution and the RNAiMax solution were added together for each of the siNAs. […] This solution was incubated at room temperature for 20 minutes. After incubation, 20 uL of the solution was added to each of the relevant wells. The final concentration of siNA in each well was 10 nM and the final volume of RNAiMax in each well was 0.3 uL.
The time of incubation with the RNAiMax-siNA complexes was 24 hours, unless otherwise indicated. There was no change in media between the transfection and harvesting of the cells unless otherwise indicated.
Dose response curves were carried out in a similar fashion in 96-well plates, while maintaining a constant amount of RNAiMax in each transfection.
RNA was extracted from a 96-well plate using the TaqMan® Gene Expression Cells-to-CT™ Kit (Cat# 4399002) with a modified protocol. Briefly, a 60 uL (1 plate) or 110 uL (2 plates) of the Lysis Solution with DNase I was dispensed into each well of the Lysis Buffer Plate (twin.tec full skirt plate). The lysis buffer and stop plates were stored at 4° C. until the cells were washed.
The plate was spun at 1100 rpm for 5 minutes. The culture medium was aspirated and discarded from the wells of the culture plate. The lysis was performed automatically using a BioMek FX instrument and method. After the Biomek method was completed, the lysis plate was incubated for 2 min. at room temperature. The lysis plate can be stored for 2 hours at 4° C., or at −20° C. or −80° C. for two months.
Each well of the reverse transcription plate required 10 uL of 2× reverse transcriptase Buffer, 1 uL of 20× reverse transcription enzyme and 2 uL of nuclease-free water. The reverse transcription master mix was prepared by mixing 2× reverse transcription buffer, 20× reverse transcription enzyme mix, and nuclease-free water. 13 uL of the reverse transcription master mix was dispensed into each well of the reverse transcription plate (semi-skirted). A separate reverse transcription plate was prepared for each cell plate. The plate was loaded onto a Biomek NX or Biomek FX Dual-96 and the Biomek method was run. The program is programmed to automatically added 7 uL of lysate from the cell lysis procedure described above into each well of the reverse transcription plate. The plate is sealed and spun on a centrifuge (1000 rpm for 30 seconds) to settle the contents to the bottom of the reverse transcription plate. The plate is placed in a thermocycler at 37° C. for 60 min, 95° C. for 5 min, and 4° C. until the plate is removed from the thermocycler. Upon removal, if not used immediately, the plate was frozen at −20° C.
A series of probes and primers were used to detect the various mRNA transcripts of the genes of ICAM-1 and ICAM-2 in human cell lines (see Table 2). All the Taqman probes and primers for the experiments here-in described were supplied as pre-validated sets by Applied Biosystems, Inc., (see Table 2). The assays were performed on an ABI 7900 instrument, according to the manufacturer's instructions. […]

48705-DC: siNA duplex, ICAM-1 target site 987 (m); sense B AGGAccuuAAcAGucuAcA TTB; antisense UGUAGAcuGuuAAGGuccuUU (sense AGGACCUUAACAGUCUACATT; antisense UGUAGACUGUUAAGGUCCUUU; sense: DNA at AGT, 2'-fluoro at CU, [invAb] at 5' end, 3' end, backbone not given here; antisense: sugars from the 5' end rrrmmmffmffmmmmffffmm, backbone not given here)
% KD Human: 5 ± 51%

48703-DC: siNA duplex, ICAM-1 target site 394 (m); sense B ccGuGuAuucGuuuccGGA TTB; antisense UCCGGAAAcGAAuAcAcGGUU (sense CCGUGUAUUCGUUUCCGGATT; antisense UCCGGAAACGAAUACACGGUU; sense: DNA at AGT, 2'-fluoro at CU, [invAb] at 5' end, 3' end, backbone not given here; antisense: sugars from the 5' end rrrmmmmmfmmmfmfmfmmmm, backbone not given here)
% KD Human: 30 ± 15%

48715-DC: siNA duplex, ICAM-1 target site 1828 (m); sense B AcuuGuAGccucAGAGcuA TTB; antisense UAGcucuGAGGcuAcAAGuUU (sense ACUUGUAGCCUCAGAGCUATT; antisense UAGCUCUGAGGCUACAAGUUU; sense: DNA at AGT, 2'-fluoro at CU, [invAb] at 5' end, 3' end, backbone not given here; antisense: sugars from the 5' end rrrffffmmmmffmfmmmfmm, backbone not given here)
% KD Human: 14 ± 12%

48712-DC: siNA duplex, ICAM-1 target site 1579 (m); sense B uGAuGGcAGccucuuAuGu TTB; antisense ACAuAAGAGGcuGccAucAUU (sense UGAUGGCAGCCUCUUAUGUTT; antisense ACAUAAGAGGCUGCCAUCAUU; sense: DNA at AGT, 2'-fluoro at CU, [invAb] at 5' end, 3' end, backbone not given here; antisense: sugars from the 5' end rrrfmmmmmmffmffmffmmm, backbone not given here)
% KD Human: 34 ± 27%

48721-DC: siNA duplex, ICAM-1 target site 523 (h); sense B GuuGcuccuGccuGGGAAc TTB; antisense GUUcccAGGcAGGAGcAAcUU (sense GUUGCUCCUGCCUGGGAACTT; antisense GUUCCCAGGCAGGAGCAACUU; sense: DNA at AGT, 2'-fluoro at CU, [invAb] at 5' end, 3' end, backbone not given here; antisense: sugars from the 5' end rrrfffmmmfmmmmmfmmfmm, backbone not given here)
% KD Human: 56 ± 16%

48725-DC: siNA duplex, ICAM-1 target site 1143 (h); sense B cAGucAGuGuGAccGcAGA TTB; antisense UCUGcGGucAcAcuGAcuGUU (sense CAGUCAGUGUGACCGCAGATT; antisense UCUGCGGUCACACUGACUGUU; sense: DNA at AGT, 2'-fluoro at CU, [invAb] at 5' end, 3' end, backbone not given here; antisense: sugars from the 5' end rrrmfmmffmfmffmmffmmm, backbone not given here)
% KD Human: 53 ± 19%

29283-DC: siNA duplex, ICAM-1 target site 1811 (h); sense B cucAGcAcGuAccucuAuA TTB; antisense UAUAGAGGuAcGuGcuGAGUU (sense CUCAGCACGUACCUCUAUATT; antisense UAUAGAGGUACGUGCUGAGUU; sense: DNA at AGT, 2'-fluoro at CU, [invAb] at 5' end, 3' end, backbone not given here; antisense: sugars from the 5' end rrrmmmmmfmfmfmffmmmmm, backbone not given here)
% KD Human: 63 ± 8%

48700-DC: siNA duplex, ICAM-1 target site 1549 (m); sense B uGccAGuAcuGcuGGucAu TTB; antisense AUGAccAGcAGuAcuGGcAUU (sense UGCCAGUACUGCUGGUCAUTT; antisense AUGACCAGCAGUACUGGCAUU; sense: DNA at AGT, 2'-fluoro at CU, [invAb] at 5' end, 3' end, backbone not given here; antisense: sugars from the 5' end rrrmffmmfmmfmffmmfmmm, backbone not given here)
% KD Human: 13 ± 5%

48701-DC: siNA duplex, ICAM-1 target site 1505 (m); sense B AGuAcuGuAccAcucucAA TTB; antisense UUGAGAGuGGuAcAGuAcuUU (sense AGUACUGUACCACUCUCAATT; antisense UUGAGAGUGGUACAGUACUUU; sense: DNA at AGT, 2'-fluoro at CU, [invAb] at 5' end, 3' end, backbone not given here; antisense: sugars from the 5' end rrrmmmmfmmfmfmmfmffmm, backbone not given here)
% KD Human: 3 ± 17%

48697-DC: siNA duplex, ICAM-1 target site 1641 (m); sense B GcucAGGAGGAGGccAuAA TTB; antisense UUAuGGccuccuccuGAGcUU (sense GCUCAGGAGGAGGCCAUAATT; antisense UUAUGGCCUCCUCCUGAGCUU; sense: DNA at AGT, 2'-fluoro at CU, [invAb] at 5' end, 3' end, backbone not given here; antisense: sugars from the 5' end rrrfmmfffffffffmmmfmm, backbone not given here)
% KD Human: 14 ± 11%
